# Reference: patent publication US20180149639A1, “MODELING NEURAL NETWORK DYSFUNCTION” (priority 2014, published 2018)
# Entries after “also recorded” stand apart in the source; their conditions may differ.
# Columns and labels:
# [1] = system: WT cortical networks; experiment: MEA recordings of WT cortical cultures (spike rate, NAP/NIP duration from ASDR plot); format: cell-based, mice
# Description: (§1) Primary dissociated cortical neurons were prepared from postnatal day 0 wild type and Shank3 KO mice (Peca et al., 2011) from littermates using standard protocols as described before (Ramamoorthi et al., 2011). For micro-electrode array recordings, dissociated neurons were plated onto substrate embedded electrodes pre-coated with polyethyleneimine (PEI) (Sigma-Aldrich, 0.1%) plus laminin (Life Technologies, 20 μg/ml) at a density of 3×10^3 cells/mm^2. For biochemical experiments, 3×10^5 cells were plated onto 1 well of the 24-well plate pre-coated with 20 μg/ml Poly-D-lysine (PDL, Sigma-Aldrich) and 4 μg/ml laminin (Life Technologies). The cultures were treated with AraC (Sigma-Aldrich, 1 μg/ml) at day 5 in vitro, and maintained up to 21 days after plating.
# (§2) The electrical activity of cultured neurons was recorded using MEA2100-Systems (Multichannel Systems) with integrated amplifier. Each MEA dish (6-well MEA 200/30 iR-Ti-rcr, Multichannel Systems) contains six wells, with 9 microelectrodes (TiN, 30 μm diameter) arranged over a 3×3 square grid at 200 μm inter-electrode distance in each MEA well (FIG. 1C). Recordings started 10 minutes after the MEA plates were placed to the headstage, which was set to 35° C., and the culture was supplied with continuous perfusion of 5% carbon dioxide balanced air (Airgas) throughout recording. For all time points earlier than 21 days in vitro (DIV21), MEA recordings lasted 15 minutes. At DIV21, MEA recordings lasted 30 minutes. All MEA recordings were performed in culture medium without perfusion. The electric signals were collected at 10 kHz with MCRack (Multichannel Systems; Version 4.4.2) and analyzed offline.
# (§3) The software MCRack was used for spike detection. Raw MEA data was first high-pass filtered at 200 Hz to remove the low-frequency local field potentials. […] The average detection threshold is around 16 μV. Spike sorting was not performed, thus multiunit activity may contribute to the spikes detected from one electrode. Timestamps of spikes were stored and used for further analysis.
# (§4) ASDR plot was generated using the method modified from Wagenaar et al. (2008) by summing the number of spikes detected per 200 ms from all electrodes in each well and plotted in time series. Clampfit 10.2 (Molecular Devices) was used for ASDR waveform analysis. 5% of individual ASDR's maximum peak value was calculated and set as the detecting threshold for identifying ASDR spike. […] ASDR spikes with ISIs below 10 seconds were grouped together and defined as network active period (NAP).
# (§5) All drugs were dissolved in DMSO to make stock solutions before applying to neurons in culture media for pharmacological studies. Picrotoxin (PTX, stock solution of 100 mM) for blocking GABAA receptors (Tocris), Clonazepam (stock solution of 30 mM) as GABAA receptor positive modulator (Sigma), NBQX (stock solution of 10 mM) for blocking AMPA receptor (Abcam), and CX546 (stock solution of 100 mM) as AMPA receptor potentiator (Tocris) were used in doses as described herein. The maximum concentration of DMSO in the culture media with drug application was 0.08% volume.
# [2] = system: Shank3 KO cortical networks; experiment: MEA recordings of Shank3 KO cortical cultures (spike rate, NAP/NIP duration from ASDR plot); format: cell-based, mice; settings: for NIP duration relative to WT level: 100 nM
# Description: as §1, §2, §3, §4, §5
molecule,measurement,setting,value
"O=C1CN=C(c2ccccc2Cl)c2cc([N+](=O)[O-])ccc2N1 [CLP, Clonazepam]","NIP duration, dose dependence",[1]; WT cortical networks DIV21,dose dependently elongated
same,"NIP duration, % longer","[1]; WT cortical networks DIV21, 100 nM, vs before treatment (basal)",42±14%
same,"NIP duration, dose dependence",[2]; Shank3 KO networks DIV21,dose dependently increased
same,NIP duration relative to WT level,[2]; Shank3 KO networks DIV21,normalized the shortened NIP in the Shank3 KO network to the level of WT; also recorded: normalized reduced NIP duration
same,NIP duration relative to WT level,"[2]; Shank3 KO networks DIV21, listed as clonazepam",normalized
O=C(c1ccc2c(c1)OCCO2)N1CCCCC1 [CX546],NIP duration (decreased to),"[1]; WT cortical networks DIV21, 30 μM",58±11%
same,length of NAP,"[1]; WT cortical networks DIV21, up to 30 μM",remained unchanged
same,mean spike rate (reduced-firing) in spontaneous network,"[2]; Shank3 KO cultures DIV21, 30 μM",rescued the reduced-firing; also recorded: rescued the hypoactive network
same,mean spike rate (reduced-firing) in PTX-treated network,"[2]; Shank3 KO cultures DIV21 with 50 μM PTX, 30 μM",effectively rescued the reduced-firing
same,duration of NAP,[2]; Shank3 KO networks DIV21,did not significantly change
same,duration of NIP,"[2]; Shank3 KO networks DIV21, CX546 treatment",did not significantly change; also recorded: did not recover the network defect
NS(=O)(=O)c1cccc2c1c([N+](=O)[O-])cc1nc(O)c(O)nc12 [NBQX],NIP duration (enhanced by),"[1]; WT cortical networks DIV21, 1 μM",560±85%
Picrotoxin [PTX],NIP duration compared to basal (reduced to),"[1]; WT cortical networks DIV21, 0.2 μM",51±6%
same,NIP duration compared to basal (reduced to),"[1]; WT cortical networks DIV21, 0.5 μM",44±6%
same,length of NAP,"[1]; WT cortical networks DIV21, up to 0.5 μM",remained unchanged
same,mean spike rate,"[1]; WT cultures DIV21, 50 μM, vs before treatment",significantly increased
same,mean spike rate,"[2]; Shank3 KO cultures DIV21, 50 μM, vs before treatment",significantly increased
